From patent publication US11180487B2, “Substituted cyanoindoline derivatives as NIK inhibitors” (Janssen Pharmaceutica NV, priority 2016, dated 2021)
Read-outs that look alike come from different tables or passages of the source.

What was measured:
[1] = system: KMS12-BM (NIK WT) multiple myeloma cells; experiment: Antiproliferative activity on KMS12-BM multiple myeloma cells (CellTiter-Glo, 96 hr), Biological Assay C; format: cell-based, human; conditions: averaged values, read-out: KMS-12 Proliferation inhibition (IC50 (nM))
Method in brief: (§1)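 Growth read-out was CellTiter-Glo luminescence after 96 h compound exposure, given as percent of no-drug control after subtracting a blank of cells read at dosing. Compounds ran as 9-point serial 1:3 dilutions in 0.3% DMSO, duplicate wells, on JJN-3 (15000/well) or KMS12-BM (20000/well) cells in RPMI 1640/10% FCS.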

[2] = system: JJN-3 (NIK translocated) multiple myeloma cells; experiment: Antiproliferative activity on JJN-3 multiple myeloma cells (CellTiter-Glo, 96 hr), Biological Assay C; format: cell-based, human; conditions: JJN-3 (NIK translocated) cells, averaged values, read-out: JJN-3 Proliferation inhibition (IC50 (nM))
Method in brief: as §1

[3] = system: P-IKKα levels in L363 (NIK translocated multiple myeloma) cells; experiment: Effect of compounds on P-IKKα levels in L363 cells (Mesoscale sandwich immuno-assay), Biological Assay B; format: cell-based, human; conditions: 2 hr treatment, averaged values, read-out: Inhibition of pIKKα_L-363 (IC50 (nM))
Protocol: Effect of Compounds on P-IKKα Levels in L363 (NIK Translocated Multiple Myeloma) Cells
All compounds tested were dissolved in DMSO and further dilutions were made in culture medium. Final DMSO concentration was 1% (v/v) in cell assays. The human L363 cells (ATCC) were cultured in RPMI 1640 medium supplemented with GlutaMax and 10% fetal calf serum (PAA). Cells were routinely maintained at densities of 0.2×10^6 cells per ml-1×10^6 cells per ml at 37° C. in a humidified 5% CO2 atmosphere. Cells were passaged twice a week splitting back to obtain the low density. Cells were seeded in 96 well plates (Nunc 167008) at 2×10^6 per ml media in a volume of 75 μl per well plus 25 μl 1 μg/ml recombinant human B-cell activating factor (BAFF/BLyS/TNFSF13B). Seeded cells were incubated at 37° C. in a humidified 5% CO2 atmosphere for 24 hr. Drugs and/or solvents were added (20 μl) to a final volume of 120 μl. Following 2 hr treatment plates were removed from the incubator and cell lysis was achieved by the addition of 30 μl 5× lysis buffer followed by shaking on a plate shaker at 4° C. for 10 min. At the end of this incubation lysed cells were centrifuged at 800×g for 20 min at 4° C. and the lysate was assessed for P-IKKα levels by sandwich immuno-assay carried out in anti-rabbit antibody coated Mesoscale plates. Within an experiment, the results for each treatment were the mean of 2 replicate wells. For initial screening purposes, compounds were tested using an 8 point dilution curve (serial 1:3 dilutions). For each experiment, controls (containing MG132 and BAFF but no test drug) and a blank incubation (containing MG132 and BAFF and 10 μM ADS125117, a test concentration known to give full inhibition) were run in parallel. The blank incubation value was subtracted from all control and sample values. To determine the IC50 a sigmoidal curve was fitted to the plot of % inhibition of control P-IKKα levels versus Log10 compound concentration.
Note: Compounds 237 and 238 were tested at a maximum top concentration of 823 nM.

[4] = molecular target: recombinant human NF-kappaB-inducing kinase (NIK/MAP3K14) (Homo sapiens, UniProt Q99558); experiment: Inhibition of auto-phosphorylation of recombinant human NIK/MAP3K14 activity (AlphaScreen), Biological Assay A; format: biochemical; conditions: averaged values over all measurements on all batches
Method in brief: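 AlphaScreen detection with anti-phospho-IKK Ser176/180 antibody plus Protein A acceptor/glutathione donor beads after 1 h, 25 °C reaction of 0.2 nM GST-tagged kinase, 25 μM ATP and compound. Buffer: 50 mM Tris pH 7.5, MgCl2, EGTA, DTT, vanadate; 1% DMSO. IC50 fitted sigmoidally to % inhibition.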

Chain of recombinant human NF-kappaB-inducing kinase (NIK/MAP3K14) (Q99558 whole entry): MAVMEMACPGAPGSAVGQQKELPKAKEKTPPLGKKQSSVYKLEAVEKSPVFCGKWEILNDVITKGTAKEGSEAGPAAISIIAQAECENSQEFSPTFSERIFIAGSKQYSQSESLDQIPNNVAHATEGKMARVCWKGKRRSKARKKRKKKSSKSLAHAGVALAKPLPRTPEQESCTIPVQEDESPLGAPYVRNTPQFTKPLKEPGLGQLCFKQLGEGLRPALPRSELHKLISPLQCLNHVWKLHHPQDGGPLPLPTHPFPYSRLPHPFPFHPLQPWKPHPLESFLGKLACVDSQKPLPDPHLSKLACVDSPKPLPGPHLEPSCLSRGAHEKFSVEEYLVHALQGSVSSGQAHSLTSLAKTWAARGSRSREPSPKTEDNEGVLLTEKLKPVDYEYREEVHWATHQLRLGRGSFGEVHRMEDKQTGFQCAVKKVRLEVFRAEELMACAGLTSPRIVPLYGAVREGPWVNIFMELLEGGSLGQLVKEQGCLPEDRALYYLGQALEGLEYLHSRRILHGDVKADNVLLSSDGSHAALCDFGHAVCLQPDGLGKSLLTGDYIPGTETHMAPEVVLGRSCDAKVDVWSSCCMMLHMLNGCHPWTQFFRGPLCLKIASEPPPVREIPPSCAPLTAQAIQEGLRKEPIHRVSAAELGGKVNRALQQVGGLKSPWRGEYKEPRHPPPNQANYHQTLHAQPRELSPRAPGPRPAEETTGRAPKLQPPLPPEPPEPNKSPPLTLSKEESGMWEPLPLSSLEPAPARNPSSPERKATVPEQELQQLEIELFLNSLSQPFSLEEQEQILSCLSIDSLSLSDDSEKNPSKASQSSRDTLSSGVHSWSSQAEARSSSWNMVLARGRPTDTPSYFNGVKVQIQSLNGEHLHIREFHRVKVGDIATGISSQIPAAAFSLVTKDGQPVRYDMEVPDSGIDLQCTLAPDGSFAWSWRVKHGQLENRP

Row | SMILES | IC50 ([1]; Homo sapiens, KMS-12-BM, 96 h) [nM] | IC50 ([2]; Homo sapiens, JJN-3, 96 h) [nM] | IC50 ([3]; Homo sapiens, L-363, 2 h) [nM] | IC50 [4] [nM] | melting point [°C] | IC50 [1] [nM] | IC50 [2] [nM] | IC50 [3] [nM]
1 | Cc1cc(C2CCCN(C)C2)c(C#N)cc1Nc1nccc(-c2cc(C#N)c3c(c2)[C@@](C)(CO)CN3)n1 (single isomer, unassigned) [Compound 178] | ~891 | 42 | 2.6 | 2 | 230 | – | – | –
2 | Cc1cc(C2CCCN(C)C2)c(C#N)cc1Nc1nccc(-c2cc(C#N)c3c(c2)[C@@](C)(CO)CN3)n1 (some centres unmarked) [Compound 179] | – | – | – | 2.2 | 188 | 1290 | 58 | 1.4
3 | Cc1ccc(C#N)cc1Nc1nccc(-c2cc(C#N)c3c(c2)[C@@](C)(COS(=O)(=O)O)CN3)n1 [Compound 143] | > 10000 | 200 | 12.3 | 6.5 | > 270 | – | – | –
4 | Cc1cc(F)c(C(=O)NC2CCOC2)cc1Nc1nccc(-c2cc(C#N)c3c(c2)[C@@](C)(CO)CN3)n1 (single isomer, unassigned) [Compound 169] | – | – | – | 8.7 | 256 | > 10000 | ~1000 | 8.3
5 | [2H]C([2H])(O)[C@@]1(C)CNc2c(C#N)cc(-c3ccnc(Nc4cc(C#N)ccc4C)n3)cc21 [Compound 136] | > 10000 | 269 | < 0.66 | 1.7 | 219 | – | – | –
6 | Cc1ccc(C#N)cc1Nc1nccc(-c2cc(C#N)c3c(c2)[C@@](C)(COC(=O)CC(=O)O)CN3)n1 [Compound 142a] | > 10000 | – | – | 12 | 138 | – | 3630 | 2.2
7 | Cc1ccc(C#N)cc1Nc1nccc(-c2cc(C#N)c3c(c2)[C@@](C)(CO)CN3)n1 [Compound 132] | – | – | – | 1.3 | 234 | 5010 | 128 | 2.2
8 | Cc1ccc(-c2ncc[nH]2)cc1Nc1nccc(-c2cc(C#N)c3c(c2)[C@@](C)(CO)CN3)n1.Cl [Compound 191] | – | – | 4070 | 13.8 | 122 | – | – | –
9 | Cc1ccc(C(=O)N2CCN(C)CC2)cc1Nc1nccc(-c2cc(C#N)c3c(c2)[C@@](C)(CO)CN3)n1 [Compound 161] | – | – | 407 | 20.4 | 245 | – | – | –
10 | C[C@]1(CO)CNc2c(C#N)cc(-c3ccnc(Nc4cc(P(C)(C)=O)ccc4OCC4CC4)n3)cc21 [Compound 6] | – | – | > 10000 | 447 | 148 | – | – | –
11 | Cc1ccc(C#N)cc1Nc1nccc(-c2cc(C#N)c3c(c2)[C@@](C)(CF)CN3)n1 [Compound 164] | – | – | 288 | 26.9 | 194 | – | – | –
12 | Cc1ccc(-c2ccnn2C)cc1Nc1nccc(-c2cc(C#N)c3c(c2)[C@@](C)(CO)CN3)n1 [Compound 190] | – | – | 2630 | 34.7 | 128 | – | – | –
13 | Cc1ccc(C#N)cc1Nc1nccc(-c2cc(C#N)c3c(c2)[C@@](C)(C(C)(C)O)CN3)n1 [Compound 135] | – | – | 4370 | 58.9 | 166 | – | – | –
14 | CC(=O)NCCCCc1ccc(C#N)cc1Nc1nccc(-c2cc(C#N)c3c(c2)[C@@](C)(CO)CN3)n1 [Compound 185] | – | – | 6.6 | 6.5 | 156 | – | – | –
15 | C[C@]1(CO)CNc2c(C#N)cc(-c3ccnc(Nc4cc(C#N)ccc4OCCCN)n3)cc21 [Compound 180] | – | – | 44.7 | 3.7 | 194 | – | – | –
16 | Cc1ccc(C(C)(C)O)cc1Nc1nccc(-c2cc(C#N)c3c(c2)[C@@](C)(CO)CN3)n1 [Compound 151] | – | – | 427 | 22.4 | 122 | – | – | –
17 | Cc1ccc(-c2cncn2C)cc1Nc1nccc(-c2cc(C#N)c3c(c2)[C@@](C)(CO)CN3)n1 [Compound 189] | – | – | 1620 | 30.9 | 239 | – | – | –
18 | COCCOc1ccc(P(C)(C)=O)cc1Nc1nccc(-c2cc(C#N)c3c(c2)[C@@](C)(CO)CN3)n1 [Compound 5] | – | – | > 10000 | 2510 | 115 | – | – | –
19 | COc1cc(N2CCOCC2)c(Cl)cc1Nc1nccc(-c2cc(C#N)c3c(c2)C(C)(C)CN3)n1 [Compound 79] | ~5130 | 91 | 75.9 | 47.9 | – | – | – | –
20 | CCCCCc1cc(S(C)(=O)=O)ccc1Nc1nccc(-c2cc(C#N)c3c(c2)[C@@](C)(CO)CN3)n1 [Compound 3] | > 10000 | 115 | 15.1 | 10.2 | – | – | – | –
21 | Cc1cc(P(C)(C)=O)c(Cl)cc1Nc1nccc(-c2cc(C#N)c3c(c2)[C@@](C)(CO)CN3)n1 [Compound 20] | ~1580 | 63 | 11.5 | 1.7 | – | – | – | –
22 | CC(C)Oc1ccc(CO)cc1Nc1nccc(-c2cc(C#N)c3c(c2)[C@@](C)(CO)CN3)n1 [Compound 154] | > 10000 | 141 | 6.6 | 1.4 | – | – | – | –

Continued, values first:

Row | IC50 ([1]; Homo sapiens, KMS-12-BM, 96 h) [nM] | IC50 ([2]; Homo sapiens, JJN-3, 96 h) [nM] | IC50 ([3]; Homo sapiens, L-363, 2 h) [nM] | IC50 [4] [nM] | melting point [°C] | IC50 [1] [nM] | IC50 [2] [nM] | IC50 [3] [nM] | SMILES
23 | ~3980 | 14 | 1.5 | 6.2 | 297 | – | – | – | [2H]C([2H])([2H])N1CCN(C(=O)c2cc(C#N)cc(Nc3nccc(-c4cc(C#N)c5c(c4)[C@@](C)(CO)CN5)n3)c2C)CC1 [Compound 204]
24 | > 10000 | 120 | 19.5 | 5.4 | 170 | – | – | – | CC1(CO)CNc2c(C#N)cc(-c3ccnc(Nc4cc(C#N)ccc4CN4CC(F)C4)n3)cc21 (centres unmarked) [Compound 228]
25 | – | – | 646 | 32.4 | 181 | – | – | – | Cc1ccc(CN2CCC(O)CC2)c(Nc2nccc(-c3cc(C#N)c4c(c3)[C@@](C)(CO)CN4)n2)c1 [Compound 221]
26 | – | 20 | 5.9 | 3.5 | 192 | – | – | – | Cc1ccc(OC2CCN(C)CC2)c(Nc2nccc(-c3cc(C#N)c4c(c3)[C@@](C)(CO)CN4)n2)c1 [Compound 234]
27 | – | – | 3160 | 16.2 | 160 | – | – | – | CC(=O)NC[C@@]1(C)CNc2c(C#N)cc(-c3ccnc(Nc4cc(C#N)ccc4C)n3)cc21 [Compound 211]
28 | – | – | ~1200 | 2.8 | 220 | – | – | – | Cc1c(Nc2nccc(-c3cc(C#N)c4c(c3)[C@@](C)(CO)CN4)n2)cc(C#N)cc1C(=O)O [Compound 201]
29 | – | – | 144 | 49 | 108 | – | – | – | Cc1ccc(CN2CCCC2)cc1Nc1nccc(-c2cc(C#N)c3c(c2)[C@@](C)(CO)CN3)n1 [Compound 216]
30 | – | – | 5500 | 15.5 | 181 | – | – | – | Cc1ccc(CN2CC(F)(F)C2)cc1Nc1nccc(-c2cc(C#N)c3c(c2)[C@@](C)(CO)CN3)n1 [Compound 219]
31 | – | – | ~1230 | 3.6 | 115 | – | – | – | Cc1ccc(CNC2CC2)cc1Nc1nccc(-c2cc(C#N)c3c(c2)[C@@](C)(CO)CN3)n1 [Compound 218]
32 | – | – | 355 | 13.8 | 116 | – | – | – | CNCc1ccc(C)c(Nc2nccc(-c3cc(C#N)c4c(c3)[C@@](C)(CO)CN4)n2)c1 [Compound 239]
33 | – | – | ~4470 | 25.1 | 168 | – | – | – | Cc1ccc(C#N)cc1Nc1nccc(-c2cc(C#N)c3c(c2)[C@@](C)(CNS(C)(=O)=O)CN3)n1 [Compound 212]
